Where two headings read alike, the source gives them in different places.

From patent US12162902B2, “Decarboxylase inhibitors for treating Parkinson's disease” (SAIL BIOMEDICINES, priority 2018, dated 2024) come the findings set out here.

For test [1], the target named is Tyrosine decarboxylase (tdc) (Enterococcus faecalis (strain EnGen0310 / MMH594), UniProt P0DTQ4). Description: Inhibition of tyrosine decarboxylase in vitro (dopamine formed from levodopa, LC-MS). Conditions: 60 min preincubation of tdc with inhibitor at room temperature, pH 5.5, 9 mM levodopa, 5 min reaction. It counts as biochemical. The procedure: Tyrosine decarboxylase (tdc) was obtained by following a previously published literature procedure (Science, 14 Jun. 2019: Vol. 364, Issue 6445, eaau6323). Tdc (220 nM final concentration) was thawed on ice and then mixed with pyridoxal-5-phosphate (2.2 mM final concentration) in 200 mM sodium acetate buffer, pH 5.5 optionally containing 1 mM TCEP. To this mixture was added inhibitor at a final concentration of 1000, 333, 111, 37, 12, 4.1, 1.4, or 0 μM (final volume: 100 μL; inhibitor was 100-fold concentrated in a solution of DMSO, H2O, or DMSO:H2O (1/1 v/v)). The protein-inhibitor mixture was incubated at room temperature for 60 min. 6 μL of this mixture was then withdrawn from each solution and mixed with 54 μL of 10 mM levodopa in 200 mM sodium acetate buffer pH 5.5. The final concentration of the reaction was 22 nM tdc, 220 μM pyridoxal-5-phosphate, 9 mM levodopa in 200 mM sodium acetate buffer pH 5.5 with 0-100 μM inhibitor. The reaction was proceeded for 5 min at room temperature before quenching by addition of 540 μL acetonitrile containing 0.1 (v/v) formic acid supplemented with 200 nM tolbutamide as an internal standard. The reactions were centrifuged (3,000 g, 10 min), and then 100 μL of each supernatant was transferred to a fresh plate. 100 μL of acetonitrile containing 0.1% (v/v) formic acid supplemented with 200 nM tolbutamide was added. An external standard curve containing 0-150 μM dopamine was prepared in the exact same manner.
Dopamine formed in each reaction was quantified by using an Agilent 6470 triple quadrupole mass spectrometer equipped with an Acquity UPLC. Mobile phase A consisted of H2O containing 10 mM ammonium formate, pH 3.0 and supplemented with 0.1% (v/v) formic acid. Mobile phase B consisted of acetonitrile containing 10 mM ammonium formate, pH 3.0 and supplemented with 0.1% (v/v) formic acid. 5 μL of each sample was injected onto a BEH Amide column (Waters Corporation, 2.1×50 mm, 1.7 μm). The gradient was set to: 100% mobile phase B at 0 min, decreasing linearly to 65% mobile phase B by 1.5 min, held constant at 65% mobile phase B until 2.5 min, ramped back up to 100% mobile phase B by 2.6 min, and held constant at 100% mobile phase B until 4.2 min. The flow rate was 0.6 mL/min. The dopamine was detected by using the mass spectrometer in multiple reaction monitoring (MRM) mode, quantifying the transition 154.1 to 137.0 m/z in positive mode. The fragmentor setting was 74, the collision energy was 9, and the cell accelerator voltage was 4, and the dwell time was 20. Tolbutamide was monitored using MRM and quantifying the transition of 271.1 to 91.0 m/z in positive mode. The fragmentor setting was 88, the collision energy was 37, and the cell accelerator voltage was 4, and the dwell time was 20.
The amount of dopamine was quantified by normalizing the area to the area of tolbutamide internal standard within each sample. This relative response was then compared to that of the standard curve to obtain the dopamine formed within each sample. The concentration of dopamine formed as a function of the inhibitor concentration at the preincubation stage was plotted in GraphPad Prism 8, and the IC50 was calculated using the non-linear fit for the standard IC50 curve equation “[inhibitor] vs response (three parameters).”

In test [2] the test system is Enterococcus faecalis v583. Description: Inhibition of E. faecalis decarboxylation activity in vitro (residual levodopa, LC-MS). It counts as cell-based.
Where [3] appears, read: Enterococcus faecalis, V583, E. faecalis v583 culture in BHI broth pH 5 with 1.5 mM levodopa, 24 h at 37° C. anaerobic, read-out: IC50 @ 60 min.
Where [4] appears, read: E. faecalis v583 culture in BHI broth pH 5 with 1.5 mM levodopa, 24 h at 37° C. anaerobic, read-out: IC50 @ 60 min.

Chain of Tyrosine decarboxylase (tdc) (P0DTQ4 whole entry): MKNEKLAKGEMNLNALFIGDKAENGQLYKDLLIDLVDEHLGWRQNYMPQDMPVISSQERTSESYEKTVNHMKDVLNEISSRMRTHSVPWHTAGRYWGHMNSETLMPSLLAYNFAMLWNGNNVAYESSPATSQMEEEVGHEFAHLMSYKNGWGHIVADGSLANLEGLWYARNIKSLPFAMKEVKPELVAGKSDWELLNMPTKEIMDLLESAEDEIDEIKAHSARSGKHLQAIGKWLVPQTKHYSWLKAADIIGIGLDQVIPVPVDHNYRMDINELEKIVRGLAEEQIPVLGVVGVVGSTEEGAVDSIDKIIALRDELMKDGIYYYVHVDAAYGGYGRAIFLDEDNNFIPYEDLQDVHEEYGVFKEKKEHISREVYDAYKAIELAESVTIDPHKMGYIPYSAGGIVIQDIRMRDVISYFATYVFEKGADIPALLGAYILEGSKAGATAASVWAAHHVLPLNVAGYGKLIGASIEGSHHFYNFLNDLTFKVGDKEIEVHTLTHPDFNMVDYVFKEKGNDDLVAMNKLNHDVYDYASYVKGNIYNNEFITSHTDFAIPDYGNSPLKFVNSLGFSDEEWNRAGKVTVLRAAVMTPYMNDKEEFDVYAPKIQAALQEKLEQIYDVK

A word on the IC50: it is the concentration that inhibits the measured activity by half. With `COC(=O)NC(C)(Cc1ccc(O)cc1)C(=O)O` (stereo not drawn) [Compound V, 3-(4-hydroxyphenyl)-2-((methoxycarbonyl)amino)-2-methylpropanoic Acid], the IC50 in test [1] (IC50 @ 60 min) and in test [2] (setting [3]) was over 1000 µM each time.

Consider `NC(CF)(Cc1ccc(O)c(Cl)c1)C(=O)O` (stereo not drawn) [Compound L, 2-amino-2-(3-chloro-4-hydroxybenzyl)-3-fluoropropanoic Acid], for which the IC50 in test [1] (read-out: IC50 @ 60 min) amounted to 2.5 µM.

In the case of `CCC(N)(Cc1ccc(O)cc1)C(=O)O` (stereo not drawn) [O, 2-amino-2-(4-hydroxybenzyl)butanoic Acid], the IC50 in test [1] (IC50 @ 60 min) and in test [2] (setting [3]) was over 1000 µM throughout.

As for `COC(=O)NC(CF)(Cc1ccc(O)cc1)C(=O)O` (stereo not drawn) [Compound W, 3-fluoro-2-(4-hydroxybenzyl)-2-((methoxycarbonyl)amino)-propanoic Acid], the IC50 in test [1] (IC50 @ 60 min) and in test [2] (setting [3]) was over 1000 µM each time.

As for `NC(CF)(Cc1cccc(O)c1)C(=O)O` (stereo not drawn) [Compound R, 2-amino-3-fluoro-2-(3-hydroxybenzyl)propanoic Acid], the “IC50 @ 60 min” value in test [1] was “Minor inhibition”. Besides, the IC50 in test [2] (setting [3]) was over 1000 µM.

`CC(=O)NC(C)(Cc1ccc(O)cc1)C(=O)O` (stereo not drawn) [Compound X, 2-acetamido-3-(4-hydroxyphenyl)-2-methylpropanoic Acid]: the IC50 in test [1] (IC50 @ 60 min) and in test [2] (setting [3]) was over 1000 µM in each case.

Regarding `CC(N)(Cc1ccc(O)c(O)c1)C(=O)O` (stereo not drawn) [Compound Q, 2-amino-3-(3,4-dihydroxyphenyl)-2-methylpropanoic Acid], the concentration for half-maximal inhibition (IC50) in test [1] (IC50 @ 60 min) and in test [2] (setting [3]) was over 1000 µM in each case.

For `Cc1cc(CC(N)(CF)C(=O)O)ccc1O` (stereo not drawn) [Compound N, 2-amino-3-fluoro-2-(4-hydroxy-3-methylbenzyl)propanoic Acid], in test [1] (read-out: IC50 @ 60 min), the IC50 came out at 2.6 µM.

On to `NC(CF)(Cc1ccc(O)c(F)c1)C(=O)O` (stereo not drawn) [Compound M, 2-amino-3-fluoro-2-(3-fluoro-4-hydroxybenzyl)propanoic Acid], for which, in test [1] (read-out: IC50 @ 60 min), the IC50 is 3.2 µM.

As for `NC(CF)(Cc1ccccc1)C(=O)O` (stereo not drawn) [Compound Z, 2-amino-2-benzyl-3-fluoropropanoic Acid], the IC50 in test [1] (IC50 @ 60 min) and in test [2] (setting [3]) was over 1000 µM in each case.

`NC(Cc1ccc(O)cc1)(C(=O)O)C(F)F` (stereo not drawn) [Compound K, 2-amino-3,3-difluoro-2-(4-hydroxybenzyl)propanoic Acid]: the “IC50 @ 60 min” value in test [1] is listed as “Minor inhibition”.

For the molecule “2-amino-2-(fluoromethyl)-4-(4-hydroxyphenyl)butanoic acid [Compound U]”, the IC50 in test [1] (read-out: IC50 @ 60 min) is over 1000 µM.

`NC(CF)(Cc1ccc(O)cc1)C(=O)O` (single isomer, unassigned) [T]: the results for the IC50 in test [1] (read-out: IC50 @ 60 min) and in test [2] (setting [4]) were 82.3 µM and 18.5 µM, respectively.

Turning to `Cc1cc(CCN)ccc1O` [Compound P, 4-(2-aminoethyl)-2-methylphenol], the IC50 is over 1000 µM in test [1] (IC50 @ 60 min) and over 1000 µM in test [2] (Enterococcus faecalis, V583, read-out: IC50 @ 60 min).

As for `NC(CF)(Cc1ccc(O)cc1)C(=O)O` (single isomer, unassigned) [S], the IC50 in test [1] (read-out: IC50 @ 60 min) was 4 µM; in test [2] (setting [4]), 2 µM.

Consider `CC(=O)NC(CF)(Cc1ccc(O)cc1)C(=O)O` (stereo not drawn) [Compound Y, 2-acetamido-3-fluoro-2-(4-hydroxybenzyl)propanoic acid], for which the IC50 in test [1] (IC50 @ 60 min) and in test [2] (setting [3]) was over 1000 µM in each case.
